Measurements as given in publication PMC8330727, “Triglyceride-mimetic prodrugs of scutellarin enhance oral bioavailability by promoting intestinal lymphatic transport and avoiding first-pass metabolism” (Drug Delivery, 2021).
Converted amounts (≈) assume the structure as drawn. Read-outs that look alike come from different tables or passages of the source.

Tests used:
[1] = Oral bioavailability / pharmacokinetic study in conscious female S-D rats (plasma scutellarin by UHPLC-MS/MS); conditions: Sprague-Dawley (S-D), rat, in vivo
Method: Scutellarin exposure after oral administration of scutellarin and prodrugs was detected in conscious female S-D rats. The rats were fasted for 12 h before the experiment and divided into three groups (n = 5 each group) randomly: scutellarin solution (25 mg/kg), Scu-Me-C5-TG solution (62.5 mg/kg equivalent to Scu), Scu-Me-C5-βMe-TG solution (62.5 mg/kg equivalent to Scu). Blood samples (0.5 mL) were collected from 5 min before administration to up to 24 h post-dosing and centrifuged at 16,000 rpm for 15 min to separate plasma. 100 μL plasma was added into 900 μL methanol and vortexed for 5 min, then centrifuged at 16,000 rpm for 15 min. The supernatant was sampled and used for UHPLC-MS/MS detection. The pharmacokinetic parameters were calculated by DAS 2.0 software.

[2] = design: method as in Lu et al., 2010; conditions: humans, 60 mg of scutellarin taken orally; ref Lu et al., 2010; cited from earlier work
[3] = design: method as in Marina Shamis and Shabat, 2003; Ma et al., 2015; conditions: Figure 2; ref Marina Shamis and Shabat, 2003; Ma et al., 2015; cited from earlier work
[4] = design: method as in Huang et al., 2005; conditions: rats; ref Huang et al., 2005; cited from earlier work
[5] = cited from earlier work
[6] = In vivo lymphatic transport in anesthetized mesenteric lymph duct-cannulated rats; design: species or system rat; conditions: scutellarin 25 mg/kg intragastric, anesthetized female rats
[7] = source not stated; cited from earlier work

CCCCCCCCCCCCCCCC(=O)OCC(COC(=O)CCCCCCCCCCCCCCC)OC(=O)CCCC(=O)Oc1ccc(-c2cc(=O)c3c(O)c(O)c(O[C@@H]4O[C@H](C(=O)OC)[C@@H](O)[C@H](O)[C@H]4O)cc3o2)cc1 [Scu-Me-C5-TG, 1,3-bis(palmitoyloxy)propan-2-yl (4-(5,6-dihydroxy-4-oxo-7-(((2S,3R,4S,5S,6S)-3,4,5-trihydroxy-6-(methoxycarbonyl)tetrahydro-2H-pyran-2-yl)oxy)-4H-chromen-2-yl)phenyl) glutarate]
F rel [1]: 223.8% | maximum plasma concentration (Cmax), fold of the parent drug [1]: 1.72 fold | relative oral bioavailability (Frel), fold of scutellarin [1]: 2.24 fold

CCCCCCCCCCCCCCCC(=O)OCC(COC(=O)CCCCCCCCCCCCCCC)OC(=O)CC(C)CC(=O)Oc1ccc(-c2cc(=O)c3c(O)c(O)c(O[C@@H]4O[C@H](C(=O)OC)[C@@H](O)[C@H](O)[C@H]4O)cc3o2)cc1 (stereo partly shown) [Scu-Me-C5-βMe-TG]
F rel [1]: 245.2% | maximum plasma concentration (Cmax), fold of the parent drug [1]: 2.11 fold | relative oral bioavailability (Frel), fold of scutellarin [1]: 2.45 fold

O=C(O)[C@H]1O[C@@H](Oc2cc3oc(-c4ccc(O)cc4)cc(=O)c3c(O)c2O)[C@H](O)[C@@H](O)[C@@H]1O [Scutellarin]
Plasma Cmax [2]: < 5.0 ng/mL | water solubility [3]: 20 µg/mL (≈ 43.3 µM) | oral bioavailability [4]: 10.6% | Log P ([5]; source not stated): −2.56 | drug in collected mesenteric lymph (mass spectrometry) [6]: failed to reach the limit of quantification | pKa [7]: 3-5

CC[C@@]1(O)C(=O)OCc2c1cc1n(c2=O)Cc2cc3c(CN(C)C)c(O)ccc3nc2-1 [Topotecan]
Log P ([5]; ref Wang et al., 2017): 0.8
